Series [1] deals with neuraminidase from Arthrobacter ureafaciens. The experiment in a line: in vitro enzymatic reaction with sialidase, change in fluorescence intensity over time. Type of series: biochemical. Conditions: for increase in the fluorescence in reaction with the sialidase: 1 μM probe, 0.01 U enzyme, 100 mM NaOAc 2 mM CaCl2 buffer pH 7.4, 37° C.; for change in the fluorescence in the absence of enzyme: identical reaction without enzyme, pH 7.4, 37° C. As for the experimental part: (§1) The optical property of the probe was acquired in a 0.2 M sodium phosphate buffer, a 100 mM NaOAc, 2 mM CaCl2, pH 6.5 buffer, or a 50 mM NaOAc, 2 mM CaCl2, 100 μg/mL BSA, pH 7.4 buffer. For an in vitro enzymatic reaction, the probe DMSO stock solution was diluted with a 100 mM NaOAc, 2 mM CaCl2, pH 7.4 buffer so that the final concentration was 1 μM. First, the fluorescence of the solution before adding a sialidase was measured every second (excitation wavelength: 490 nm, emission wavelength: 520 nm). Then, a neuraminidase from Arthrobacter ureafaciens (0.01 U) was used for this assay.
The fluorescence intensity of HMRef-Neu5Ac obtained in Synthesis Example 1 was changed through an enzymatic reaction with a neuraminidase (Arthrobacter ureafaciens), and the change in the fluorescence intensity of HMRef-Neu5Ac over time was examined. HMRef-Neu5Ac was dissolved in a 100 mM NaOAc 2 mM CaCl2 buffer (pH 7.4) to prepare a 1 μM solution, and 0.01 U of the enzyme was added 60 seconds after the start of measurement. At the time of measurement, the temperature was 37° C., and the concentration of an enzyme inhibitor (DANA) was 100 μM.
In the same manner as in the evaluation of HMRef-Neu5Ac, the reaction with a sialidase and the absorption spectrum at each pH were acquired for HMRef-S-Neu5Ac (FIGS. 3a and 3b).

Series [2] can be described thus: stability of the probe at various pH values (fluorescence intensity and absorption spectra over time). Conditions: for stability: change in fluorescence intensity over time at various pH values: 0.2 M sodium phosphate buffer, 2 hours, ex/em 485 nm/535 nm; for change of absorption spectra 1.5 hours after dissolution: 0.2 M sodium phosphate buffers of various pH, immediately after vs 1.5 hours after dissolution. Type of series: physicochemical. As for the experimental part: HMRef-Neu5Ac was dissolved in 0.2 M sodium phosphate buffers having various pH values, and the absorption spectra were measured immediately after and 1.5 hours after the dissolution.
The stability of HMRef-Neu5Ac and that of HMRef-S-Neu5Ac were directly compared by recording the changes in fluorescence intensity over time at a pH within a range. The initial fluorescence intensity values of both the probes depend on the pH value according to the pKcycl values of the probes. That is, the lower the pH is, the larger the initial fluorescence intensity value is.
The measurement was performed in 0.2 M sodium phosphate buffer at 37° C. and measurements were taken every 5 minutes. In each measurement, excitation/emission wavelengths of 485 nm/535 nm were used.

A short description of series [3]: photochemical properties (absorption, emission, quantum yield, pKa, pKcycl). To be noted: for pKcycl: spiro ring formation. Type of series: physicochemical. How it is done: UV-vis spectra were obtained with a spectrophotometer, Shimadzu UV-2450.
Fluorescence spectra were obtained with Hitachi F-7000. The absolute fluorescence quantum efficiency was measured using an absolute PL quantum yield measuring apparatus, Quantuarus-QY (Hamamatsu Photonics K. K.). The probe was dissolved in dimethyl sulfoxide (DMSO, grade for fluorometry, DOJINDO LABORATORIES) to obtain a stock solution.
as §1

For series [4], the system named is neuraminidase (from Arthrobacter ureafaciens). The experiment in a line: dynamic (kinetic) parameters of the probes as neuraminidase substrates. Type of series: biochemical. Conditions: for Km / Vmax / kcat: 50 mM NaOAc, 2 mM CaCl2, 100 μg/mL BSA buffer (pH 6.5), 60 minutes; for kcat/Km relative to that of 4-MUNANA: fold larger than 4-MUNANA. How it is done:
The probe was dissolved in 200 μL (total volume) of 50 mM NaOAc, 2 mM CaCl2, 100 μg/mL BSA buffer (pH 6.5) at various concentrations. A neuraminidase (from Arthrobacter ureafaciens, […]) was added, and the increase in fluorescence for 60 minutes was evaluated. Concerning the dynamic parameter Vmax and Km, the corrected data were calculated using the following formula.
V0 is the steady state speed of the probe substrate rotation by the neuraminidase, Vmax is the maximum speed (mM/min), X is the probe concentration in the reaction mixture (mM), and Km is the Michaelis constant (mM) at which the reaction speed is half of Vmax. Formula 1 was fitted to the data using KaleidaGraph 4.5.2 software (Synergy Software).
The dynamic parameters of HMRef-Neu5Ac and HMRef-S-Neu5Ac were determined in accordance with the method previously described by Govorkova et al., and compared to that of a commercial sialidase substrate, 4-MUNANA.

The mark [5] stands for this setting: pH 2, 0.2M sodium phosphate buffer.
Where [6] appears, read: pH 7.4, 0.2M sodium phosphate buffer.

The record followed here is patent US20220186286A1, “FLUORESCENT PROBE FOR DETECTING ACTIVATION OF SIALIDASE” (The University of Tokyo, priority 2019, published 2022).

Each structure is given as a SMILES string.

For the molecule `CC(=O)N[C@H]1[C@H]([C@H](O)[C@H](O)CO)O[C@@](Oc2ccc(COc3ccc4c(c3)Oc3cc(NCC(F)(F)F)ccc3C43OCc4ccccc43)cc2)(C(=O)O)C[C@@H]1O` (some centres unmarked) [HMRef-S-Neu5Ac], in series [1], the “increase in the fluorescence in reaction with the sialidase” value is on record as 130 fold and the “change in the fluorescence in the absence of enzyme” value is “remained at a constant low level”. Also, the “stability: change in fluorescence intensity over time at various pH values” in series [2] (37° C.) is given as “changed little over the time”. Also, the “change of absorption spectra 1.5 hours after dissolution” value in series [2] is given as “changed little”. Further, in series [3] (setting [5]), the Absorption max. was 484 nm, the Emission max. is on record as 522 nm and the “fluorescence quantum yield (absolute fluorescence quantum efficiency)” value (“fluorescence quantum yield” for short) worked out at 0.537. Further, the “fluorescence quantum yield” value in series [3] (setting [6]) is listed as 0.271. Moreover, the pKcycl in series [3] was found to be 5.3. In addition, in series [4], the Km was 11 µM, the Vmax was found to be 7.03 nM/s, the turnover number (kcat) is 10.7 s⁻¹ and the “kcat/Km relative to that of 4-MUNANA” value is about 13 fold.
On to `CC(=O)N[C@H]1[C@H]([C@H](O)[C@H](O)CO)O[C@@](Oc2ccc3c(c2)Oc2cc(NCC(F)(F)F)ccc2C32OCc3ccccc32)(C(=O)O)C[C@@H]1O` (some centres unmarked) [HMRef-Neu5Ac], for which, in series [1], the “increase in the fluorescence in reaction with the sialidase” value is on record as “up to 40 fold” and the “change in the fluorescence in the absence of enzyme” value came to 3 fold. For the same molecule, the “stability: change in fluorescence intensity over time at various pH values” in series [2] (37° C.) was “clear instability at all the pH values”. In addition, in series [2], the “change of absorption spectra 1.5 hours after dissolution” value was “greatly changed in shape”. In series [2] (pH 2 and pH 4, 0.2 M sodium phosphate buffer, 37° C.), the “time to complete hydrolysis” value is recorded as “about 40 minutes”. For the same molecule, in series [3] (setting [5]), the Absorption max. was 484 nm, the Emission max. is on record as 522 nm and the “fluorescence quantum yield” value is 0.650. In addition, the “fluorescence quantum yield” value in series [3] (setting [6]) stood at 0.323. In addition, in series [3], the pKcycl stood at 4.8. Moreover, in series [4], the Km is 19 µM, the Vmax was 13.5 nM/s, the turnover number (kcat) turned out to be 20.6 s⁻¹ and the “kcat/Km relative to that of 4-MUNANA” value is about 16 fold.
On to `CC(=O)N[C@@H]1[C@@H](O)C[C@](Oc2ccc3c(C)cc(=O)oc3c2)(C(=O)O)O[C@H]1C(O)[C@H](O)CO` (stereo partly drawn) [4-MUNANA, 2′-(4-methylumbelliferyl)-α-D-N-acetylneuraminic acid, reference compound], for which, in series [4], the Km was found to be 37 µM, the maximal velocity (Vmax) is 1.73 nM/s and the catalytic constant (kcat) came out at 2.6 s⁻¹.
Molecule `O=c1ccc2c(-c3ccccc3CO)c3ccc(NCC(F)(F)F)cc3oc-2c1` [HMRef, reference compound] registered a pKa in series [3] (0.2 M sodium phosphate buffer) of 4.4. For the same molecule, in series [3] (setting [5]), the Absorption max. is 479 nm, the Emission max. stood at 515 nm and the “fluorescence quantum yield” value came to 0.716. In addition, in series [3] (setting [6]), the Absorption max. turned out to be 498 nm, the Emission max. was determined as 518 nm and the “fluorescence quantum yield” value was found to be 0.777. Further, in series [3], the pKcycl is 10.2.

By Km is commonly meant the substrate concentration at which the rate is half of its maximum. What is called Vmax is the rate approached at saturating substrate. The term kcat denotes the number of substrate molecules converted per active site and unit of time at saturation. The pKa is the negative logarithm of the acid dissociation constant. Read a high pKa as a weaker acid or stronger base.
